{
  "source": "patent US7902254B1",
  "about": "“Method for treating conditions mediated by PPAR using macelignan” (Newtree Co., Ltd., priority 2005, dated 2011)",
  "key": {"[1]": {"test_system": "obesity/diabetes mice (db/db mice)", "assay": "Anti-diabetes effect in obesity/diabetes mouse model", "assay_type": "in vivo", "details": "for OGTT blood sugar: 12th day; for blood sugar level: 14 days; for blood sugar level / Adiponectin concentration in blood / Insulin concentration in blood: db/db mice; for Adiponectin concentration in blood / Insulin concentration in blood: 14th day", "description": "A mouse (db/db mouse; The Jackson Laboratory, USA) used in the present invention as an obesity/diabetes model is deficient in leptin genes and cannot control its appetite, and thus takes an excessive amount of food continuously. […] Thus, it can be a typical model of obesity and metabolic diseases. Additionally, it has a higher blood sugar level and can be a typical model of non-insulin-dependent diabetes mellitus. To investigate the effect of preventing and treating diabetes of macelignan, seven mice of 10 week-aged obesity/diabetes mice (db/db mice) were used per test group. To the test groups, macelignan suspended in 0.25% carboxymethyl cellulose was orally administered with the dose of 5 mg/kg (body weight), 10 mg/kg (body weight) and 25 mg/kg (body weight), once per day at a predetermined time, for 14 days. As a control, 0.25% carboxymethyl cellulose was orally administered alone to normal mice in the same dose as administered to the test group. As another control, 0.25% carboxymethyl cellulose was orally administered alone to obesity/diabetes mice in the same dose as administered to the test group. As still another control, 10 mg/kg (body weight) of troglitazone was orally administered. Blood sugar levels of the obesity/diabetes mice were determined from six days before the administration, once per three days. On the 12th day after the oral administration, the test group and the controls were subjected to the Oral Glucose Tolerance Test (OGTT). For this test, obesity/diabetes mice in the test group and the controls were fasted for at least 18 hours, glucose was orally administered to the mice in a dose of 3 g/kg (body weight), and then variations in the blood sugar were measured at 0 minutes, 30 minutes, 60 minutes and 120 minutes after the glucose administration. Additionally, on the 14th day of the oral administration, the final blood sugar level, insulin content in blood (mouse insulin ELISA Kit, Linco Research, o. EZRMI-BK, USA) and adiponectin content in blood (Adiponectin Quantikine ELISA Kit, R&D systems, No. MRP300, USA) were analyzed."}, "[2]": {"test_system": "target genes of PPARγ (CD36, LPL, ACS, GyK)", "assay": "Expression of target genes of PPARγ in liver tissue of obesity/diabetes mouse model", "assay_type": "in vivo", "details": "5, 10 and 25 mg/kg oral, 14 days, db/db mice, p<0.05 vs control", "experimental": "Liver tissue was removed from the test groups and the controls treated by oral administration in Examples 5˜8. The liver tissue was homogenized in liquid nitrogen and the total RNA was isolated from the crushed tissues by using TRIZOL (Invitrogen, USA). The total RNA isolated as described above was determined and cDNA was synthesized by using reverse transcriptase at 42° C. for 20 minutes. The cDNA was subjected to RT-PCR by repeating the cycle of 95° C./1 minute, 56° C./30 seconds and 72° C./2 minutes thirty times with the following primers and Taq polymerase: primers for CD36 amplification (SEQ ID NO: 5 and SEQ ID NO: 6), primers for LPL amplification (SEQ ID NO: 13 and SEQ ID NO: 14), primers for ACS amplification (SEQ ID NO: 17 (AGCAGAGCTTCGCACGGC) and SEQ ID NO: 18 ([…]) and primers for GyK amplification (SEQ ID NO: 19 ([…]) and SEQ ID NO: 20 ([…])). Expression of the genes was determined by real-time PCR."}, "[3]": {"test_system": "target genes of PPARα (CD36, CPT-1, PDK4, ACO)", "assay": "Expression of target genes of PPARα in SK-HEP-1 liver cells (RT-PCR)", "assay_type": "cell-based", "details": "SK-HEP-1 cells, 1, 5, 10 and 25 μM, 24 hours, vs control", "experimental": "SK-HEP-1 liver cells ([…]) cultured in a DMEM medium containing 10% FBS were pipetted into a multi-well plate in a cell count of 1×10^6 cells per well, and then further cultured for 5 hours. Different concentrations (1, 5, 10 and 25 μM) of macelignan were added to the medium of the cultured cells, and then the cells were left for 24 hours. The cells were collected and the total RNA was isolated by using TRIZOL (Invitrogen, USA). The total RNA isolated as described above was determined and cDNA was synthesized by using reverse transcriptase at 42° C. for 20 minutes with same amounts of RNA. The cDNA was subjected to RT-PCR by repeating 30 cycles of 95° C./1 minute, 56° C./30 seconds and 72° C./2 minutes with the following primers and Taq polymerase: primers for CD36 amplification (SEQ ID NO: 5(CGGCGATGAGAAAGCAGAA) and SEQ ID NO: 6(CAACCAGGCCCAGGAGC)), primers for CPT-1 amplification (SEQ ID NO: 7([…]) and SEQ ID NO: 8([…])), primers for PDK4 amplification (SEQ ID NO: 9([…]) and SEQ ID NO: 10(ATAAGTTAAGTGGGCCTGG)), and primers for ACO amplification (SEQ ID NO: 11([…]) and SEQ ID NO: 12([…]))."}},
  "data": [
    {"smiles": "COc1cc(C[C@H](C)[C@H](C)Cc2ccc3c(c2)OCO3)ccc1O", "note": "(single isomer, unassigned) [macelignan]", "values": [
      {"measurement": "OGTT blood sugar", "setting": "[1]; 0 min. after glucose 3 g/kg, 5 mg/kg oral", "result": "379.14 ± 26.23", "unit": "mg/dL"},
      {"measurement": "OGTT blood sugar", "setting": "[1]; 0 min. after glucose 3 g/kg, 10 mg/kg oral", "result": "313.86 ± 51.40", "unit": "mg/dL"},
      {"measurement": "OGTT blood sugar", "setting": "[1]; 0 min. after glucose 3 g/kg, 25 mg/kg oral", "result": "319.14 ± 35.25", "unit": "mg/dL"},
      {"measurement": "blood sugar level", "setting": "[1]; 5 mg/kg oral once per day", "result": "552.84 ± 47.95", "unit": "mg/dL"},
      {"measurement": "Adiponectin concentration in blood", "setting": "[1]; 5 mg/kg oral", "result": "5111.14 ± 925.88", "unit": "ng/mL"},
      {"measurement": "Insulin concentration in blood", "setting": "[1]; 5 mg/kg oral", "result": "26.33 ± 10.78", "unit": "ng/mL"},
      {"measurement": "blood sugar level", "setting": "[1]; 10 mg/kg oral once per day", "result": "501.03 ± 43.67", "unit": "mg/dL"},
      {"measurement": "Adiponectin concentration in blood", "setting": "[1]; 10 mg/kg oral", "result": "6882.86 ± 250.05", "unit": "ng/mL"},
      {"measurement": "Insulin concentration in blood", "setting": "[1]; 10 mg/kg oral", "result": "16.66 ± 7.03", "unit": "ng/mL"},
      {"measurement": "blood sugar level", "setting": "[1]; 25 mg/kg oral once per day", "result": "412.74 ± 31.15", "unit": "mg/dL"},
      {"measurement": "Adiponectin concentration in blood", "setting": "[1]; 25 mg/kg oral", "result": "7864.00 ± 808.21", "unit": "ng/mL"},
      {"measurement": "Insulin concentration in blood", "setting": "[1]; 25 mg/kg oral", "result": "8.51 ± 3.67", "unit": "ng/mL"},
      {"measurement": "OGTT blood sugar", "setting": "[1]; 30 mins. after glucose 3 g/kg, 5 mg/kg oral", "result": "636.85 ± 63.29", "unit": "mg/dL"},
      {"measurement": "OGTT blood sugar", "setting": "[1]; 30 mins. after glucose 3 g/kg, 10 mg/kg oral", "result": "670.14 ± 94.20", "unit": "mg/dL"},
      {"measurement": "OGTT blood sugar", "setting": "[1]; 30 mins. after glucose 3 g/kg, 25 mg/kg oral", "result": "580.00 ± 101.37", "unit": "mg/dL"},
      {"measurement": "OGTT blood sugar", "setting": "[1]; 60 mins. after glucose 3 g/kg, 5 mg/kg oral", "result": "613.38 ± 24.36", "unit": "mg/dL"},
      {"measurement": "OGTT blood sugar", "setting": "[1]; 60 mins. after glucose 3 g/kg, 10 mg/kg oral", "result": "593.11 ± 27.15", "unit": "mg/dL"},
      {"measurement": "OGTT blood sugar", "setting": "[1]; 60 mins. after glucose 3 g/kg, 25 mg/kg oral", "result": "509.70 ± 27.71", "unit": "mg/dL"},
      {"measurement": "OGTT blood sugar", "setting": "[1]; 120 mins. after glucose 3 g/kg, 5 mg/kg oral", "result": "564.21 ± 29.86", "unit": "mg/dL"},
      {"measurement": "OGTT blood sugar", "setting": "[1]; 120 mins. after glucose 3 g/kg, 10 mg/kg oral", "result": "529.46 ± 17.55", "unit": "mg/dL"},
      {"measurement": "OGTT blood sugar", "setting": "[1]; 120 mins. after glucose 3 g/kg, 25 mg/kg oral", "result": "431.21 ± 59.18", "unit": "mg/dL"},
      {"measurement": "mRNA expression of CD36, LPL, ACS and GyK in liver tissue", "setting": "[2]", "result": "significantly increased"},
      {"measurement": "mRNA expression of CD36, CPT-1, PDK-4 and ACO", "setting": "[3]", "result": "significantly increased"}
    ]}
  ]
}
